The test system of this test is male Zucker Fatty Rats. As to the kind of experiment: In vivo activity in glucose tolerance model (oral glucose challenge). Also on record: species or system rat. Particulars: mean ± SE, n = 4; for Blood glucose, t = 10: t = 10 minutes; for Blood glucose, t = 20: t = 20 minutes; for Blood glucose, t = 30: t = 30 minutes; for Blood glucose, t = 60: t = 60 minutes; for Blood glucose, t = 120: t = 120 minutes. The procedure: The activity of the compounds was investigated in male Zucker Fatty Rats between 10 and 20 weeks of age. The animals were fasted overnight and then administered with the test compound (10 mg/kg) as a solution by oral gavage. One hour later hour a blood sample (200 μl) is taken from the tail vein to establish a baseline (t=0) glucose level, then the animals are given glucose (1 g/kg as a 40% wt/vol solution) orally. Further blood samples are taken at t=10, 20, 30, 60 and 120 minutes. Glucose is determined by an enzymatic assay.
In a separate experiment the test compound was given at the same dose (10 mg/kg) but 12 hours before the oral glucose challenge.

The mark [1] stands for this setting: 10 mg/kg given 12 hours before the oral glucose challenge.
Where [2] appears, read: 10 mg/kg oral gavage 1 hour before oral glucose (1 g/kg), baseline t = 0.
Where [3] appears, read: 10 mg/kg oral gavage 1 hour before oral glucose (1 g/kg).

As to `CC(=O)OC(C)OC(=O)N[C@H](C(=O)N1CCC[C@H]1C#N)C(C)(C)C` (stereo partly drawn) [Example 1, (2S)-1-((2′S)-2′-(1″-Acetoxyethoxycarbonylamino)-3′,3′-dimethylbutanoyl)pyrrolidine-2-carbonitrile], under setting [1], the “AUC (area under the concentration-time curve) of blood glucose” value was 2430 ± 591; the “Blood glucose, t = 10” value stood at 113.5 ± 10.8 mg/dL; the “Blood glucose, t = 20” value amounted to 111.3 ± 9.9 mg/dL; the “Blood glucose, t = 30” value is 91.9 ± 11.8 mg/dL. In addition, under setting [1], the “Blood glucose, t = 60” value came out at 99.3 ± 10.0 mg/dL and the “Blood glucose, t = 120” value worked out at 116.9 ± 14.4 mg/dL. The “Blood glucose, t = 0” value (10 mg/kg given 12 hours before the oral glucose challenge, t = 0) worked out at 83.7 ± 3.8 mg/dL.

As to `CC[C@H](C)[C@H](NC(=O)OC)C(=O)N1CCC[C@H]1C#N` [Example 3, (2S)-1-(N′-(Methoxycarbonyl)isoleucyl)pyrrolidine-2-carbonitrile], under setting [2], the “Blood glucose, t = 0” value is 86.4 ± 3.4 mg/dL. Under setting [3], the “Blood glucose, t = 10” value came out at 175.1 ± 3.8 mg/dL; the “Blood glucose, t = 20” value is 148.5 ± 23.2 mg/dL; the “Blood glucose, t = 30” value came to 136.7 ± 16.9 mg/dL; the “Blood glucose, t = 60” value is 120.6 ± 8.3 mg/dL. Moreover, under setting [3], the “Blood glucose, t = 120” value was 101.9 ± 4.5 mg/dL.

Consider `CC[C@H](C)[C@H](N)C(=O)N1CCC[C@H]1C#N` [Reference, (2S)-1-(Isoleucyl)pyrrolidine-2-carbonitrile, reference compound], for which, under setting [2], the “Blood glucose, t = 0” value was determined as 91.4 ± 5.2 mg/dL. For the same compound, under setting [3], the “Blood glucose, t = 10” value was 125.8 ± 8.9 mg/dL; the “Blood glucose, t = 20” value is 110.0 ± 21.5 mg/dL; the “Blood glucose, t = 30” value was 110.9 ± 4.4 mg/dL; the “Blood glucose, t = 60” value amounted to 112.2 ± 7.5 mg/dL. For the same compound, the “Blood glucose, t = 120” value under setting [3] came out at 108.7 ± 8.9 mg/dL.

On to `CC[C@H](C)[C@H](NC(=O)CN)C(=O)N1CCC[C@H]1C#N` [Example 5, (2S)-1-(Glycylisoleucyl)pyrrolidine-2-carbonitrile], for which the “Blood glucose, t = 0” value under setting [2] came out at 80.5 ± 1.4 mg/dL. In addition, under setting [3], the “Blood glucose, t = 10” value was 141.3 ± 14.5 mg/dL; the “Blood glucose, t = 20” value worked out at 134.2 ± 10.3 mg/dL; the “Blood glucose, t = 30” value was 129.2 ± 8.2 mg/dL; the “Blood glucose, t = 60” value was found to be 114.6 ± 8.1 mg/dL. In addition, the “Blood glucose, t = 120” value under setting [3] worked out at 121.2 ± 5.8 mg/dL.

With `CC[C@H](C)[C@H](NC(=O)OC(C)OC(C)=O)C(=O)N1CCC[C@H]1C#N` (stereo partly drawn) [Example 2, (2S)-1-(N′-(1″-Acetoxyethoxycarbonyl)isoleucyl)pyrrolidine-2-carbonitrile], the “Blood glucose, t = 0” value under setting [2] is 80.2 ± 4.2 mg/dL. For the same compound, under setting [3], the “Blood glucose, t = 10” value came out at 122.2 ± 7.8 mg/dL; the “Blood glucose, t = 20” value came out at 117.8 ± 4.8 mg/dL; the “Blood glucose, t = 30” value was found to be 104.4 ± 5.6 mg/dL; the “Blood glucose, t = 60” value was determined as 117.6 ± 6.7 mg/dL. The “Blood glucose, t = 120” value under setting [3] stood at 111.3 ± 12.1 mg/dL.

These data come from US7169806B2, “Antidiabetic agents” (Ferring BV, priority 1999, dated 2007).
